The results in this text go back to PubChem BioAssay (NCI).

Test systems include TK-10 renal; NCI-H460 lung; SNB-19 CNS; K-562 leukemia; NCI-H522 lung; MDA-MB-231 breast; SK-OV-3 ovarian; KM12 colon; HOP-92 NSCLC; CCRF-CEM leukemia.
Common to all, as to test: NCI tumour cell line growth inhibition, 48 h

Molecules are shown by their SMILES. Converted amounts (≈) assume the structure as drawn. “And” between values parts separate entries of the source, which are not always exact repeats. Equal entries are not always repeated.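 Growth conditions: 96-well plates. Treatment: test compound, 48 hours, 5 concentrations. Analysis: linear interpolation between bracketing concentrations; unreached endpoints set to highest concentration. Here, GI50 denotes the concentration required for 50% inhibition of growth. TGI is the concentration that stops growth completely.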

As to `COc1ccc(CN=C(N)N=C(N)N)cc1OC`, the GI50 with TK-10 renal is more than 1000 µM; in the assay with NCI-H460 lung, more than 1000 µM; in the assay on SNB-19 CNS, 482 µM; with K-562 leukemia, 362 µM; with NCI-H522 lung, 714 µM; with MDA-MB-231 breast, more than 1000 µM. The GI50 in the assay on SK-OV-3 ovarian and in the assay on KM12 colon was more than 1000 µM throughout. Moreover, the TGI in the assay on TK-10 renal, in the assay on NCI-H460 lung, in the assay with SNB-19 CNS, in the assay with K-562 leukemia, in the assay with NCI-H522 lung and in the assay on MDA-MB-231 breast was more than 1000 µM in each case. Further, the TGI in the assay on SK-OV-3 ovarian and with KM12 colon was more than 1000 µM throughout.
In the case of `O=C(O)c1cc(=O)c2cc(C(=O)c3cccs3)c(Cl)c(Cl)c2o1`, the TGI in the assay on HOP-92 NSCLC, in the assay on TK-10 renal, in the assay on NCI-H460 lung, in the assay with CCRF-CEM leukemia, with SNB-19 CNS and with K-562 leukemia was more than 100 µM in each case. The TGI in the assay with NCI-H522 lung, in the assay with SK-OV-3 ovarian and in the assay on KM12 colon was more than 100 µM in each case.
Turning to `C=C(C)C(=O)O[C@H]1CC2=CC(CC(C)=C[C@H]3OC(=O)C(=C)C13)OC2=O` (some centres not stated), the TGI in the assay on HOP-92 NSCLC was 32.4 µM; in the assay on TK-10 renal, 22.6 µM; in the assay on NCI-H460 lung, more than 100 µM; in the assay on CCRF-CEM leukemia it was 17.9 µM; with SNB-19 CNS, more than 100 µM; in the assay with K-562 leukemia, 22.5 µM. Besides, the results for the TGI in the assay with NCI-H522 lung, with MDA-MB-231 breast and in the assay on KM12 colon were 17 µM, 60.8 µM and 47.1 µM, respectively.
`COC1OC(C(C)O)C2OC(C)(C)OC12` (configuration not stated): the TGI with TK-10 renal, with NCI-H460 lung, with CCRF-CEM leukemia, in the assay with SNB-19 CNS, with K-562 leukemia and in the assay on NCI-H522 lung was more than 100 µM each time. The TGI with MDA-MB-231 breast, with SK-OV-3 ovarian and in the assay on KM12 colon was more than 100 µM in each case.
Take `O=C(O)C1CC2CC(=O)C1C2` (configuration not stated): the TGI in the assay on HOP-92 NSCLC, with TK-10 renal, in the assay on NCI-H460 lung, with CCRF-CEM leukemia, in the assay on SNB-19 CNS and in the assay with K-562 leukemia was more than 100 µM in each case. Further, the TGI with NCI-H522 lung, in the assay with SK-OV-3 ovarian and with KM12 colon was more than 100 µM in each case.
In the case of `CN(C)CC1=Nc2cccc3cccc(c23)N1`, the TGI in the assay on HOP-92 NSCLC is 33.1 µM; in the assay with TK-10 renal, 32.3 µM; in the assay on NCI-H460 lung it was more than 100 µM; with CCRF-CEM leukemia, more than 100 µM; in the assay on SNB-19 CNS it was more than 100 µM; with K-562 leukemia, 62.3 µM. For the same compound, the TGI in the assay on MDA-MB-231 breast is 34.7 µM; with SK-OV-3 ovarian, more than 100 µM; in the assay with KM12 colon, 59.3 µM.
Turning to `COC(=O)c1nc(N)nc(C(=O)OC)c1C(=O)c1ccccc1`, the TGI in the assay with HOP-92 NSCLC, with TK-10 renal, in the assay with NCI-H460 lung, in the assay with CCRF-CEM leukemia, in the assay on SNB-19 CNS and in the assay with K-562 leukemia was more than 100 µM throughout. In addition, the TGI with NCI-H522 lung, with SK-OV-3 ovarian and in the assay with KM12 colon was more than 100 µM each time.
Turning to `COC(=O)C1=C(c2ccc(Cl)cc2)C(O)N=C(NN)N1` (configuration not stated), the TGI in the assay on HOP-92 NSCLC, in the assay with TK-10 renal, with NCI-H460 lung, in the assay on CCRF-CEM leukemia, in the assay on SNB-19 CNS and in the assay with K-562 leukemia was more than 100 µM throughout. The TGI with NCI-H522 lung, in the assay on SK-OV-3 ovarian and in the assay with KM12 colon was more than 100 µM each time.
Regarding `O=C1NN=C(c2ccc([N+](=O)[O-])cc2)C1n1nc(-c2ccccc2)c2ccccc2c1=O` (configuration not stated), the TGI with HOP-92 NSCLC, with TK-10 renal, in the assay with NCI-H460 lung, in the assay on CCRF-CEM leukemia, in the assay on SNB-19 CNS and in the assay with K-562 leukemia was more than 100 µM in each case. Also, the TGI with NCI-H522 lung, in the assay on SK-OV-3 ovarian and with KM12 colon was more than 100 µM in each case.
On to `c1ccc2c(CN3CCC(C4CCN(Cc5cccc6ccccc56)CC4)CC3)cccc2c1`, for which the TGI was 12 µM and 32.9 µM in the assay with HOP-92 NSCLC; 42.8 µM and > 31.6 µM with TK-10 renal; 52.4 µM and 46.8 µM in the assay on NCI-H460 lung; 65.3 µM and > 31.6 µM with CCRF-CEM leukemia; more than 100 µM in the assay on SNB-19 CNS; 26.3 µM and 23.4 µM in the assay with NCI-H522 lung. In addition, the TGI in the assay with MDA-MB-231 breast was more than 74.1 µM; with SK-OV-3 ovarian, 75.2 µM and > 100 µM; with KM12 colon, 33.7 µM and > 100 µM. For the same compound, the GI50 was 13.7 µM and 4 µM in the assay with CCRF-CEM leukemia; 40.1 µM and > 100 µM with SNB-19 CNS; 10.7 µM and 33.5 µM in the assay on KM12 colon.
On to `COc1cc2c(cc1OCCCCCn1c3ccccc3c3ccccc31)N=C[C@@H]1CCCN1C2=O`, for which the GI50 with TK-10 renal was 2.25 µM; in the assay with SNB-19 CNS it was 2.05 µM; in the assay on MDA-MB-231 breast, 1.73 µM; with SK-OV-3 ovarian, 4.57 µM; with KM12 colon it was 1.96 µM. Also, the TGI was determined as 4.84 µM in the assay on TK-10 renal; 4.04 µM with SNB-19 CNS; 3.69 µM in the assay on MDA-MB-231 breast; 16.8 µM with SK-OV-3 ovarian; 3.74 µM in the assay on KM12 colon.
`COc1ccc(C=C2C(=O)NC(=O)NC2=O)cc1OCc1ccccc1`: the GI50 in the assay with HOP-92 NSCLC is 57.2 µg/mL (≈ 162 µM); with SNB-19 CNS it was 23.3 µg/mL; with K-562 leukemia it was 30.8 µg/mL; in the assay on MDA-MB-231 breast, 31.4 µg/mL; with KM12 colon, 33 µg/mL.
`NS(=O)(=O)c1ccc(N2N=C(c3cccs3)CC2c2ccccc2O)cc1` (configuration not stated): the GI50 with TK-10 renal is 1.09 µM; in the assay with NCI-H460 lung, 1.16 µM; in the assay with CCRF-CEM leukemia, 1.4 µM; in the assay on SNB-19 CNS, 1.23 µM; in the assay on K-562 leukemia, 1.24 µM; with NCI-H522 lung, 0.644 µM. In addition, the GI50 in the assay with MDA-MB-231 breast is 0.972 µM; with SK-OV-3 ovarian, 1.18 µM; with KM12 colon it was 0.809 µM. The TGI in the assay with TK-10 renal was 5.47 µM; in the assay on NCI-H460 lung, 4.24 µM; in the assay with CCRF-CEM leukemia, more than 33.3 µM; in the assay on SNB-19 CNS, 11 µM; in the assay with K-562 leukemia, 15.3 µM; in the assay on NCI-H522 lung it was 1.51 µM. Also, the TGI in the assay with MDA-MB-231 breast was found to be 3.19 µM; with SK-OV-3 ovarian it was 10.1 µM; with KM12 colon it was 1.94 µM.
Consider `CCOC(=O)c1cn(CC)c2cc3c(cc2c1=O)SCS3`, for which the TGI with HOP-92 NSCLC, with TK-10 renal, in the assay with NCI-H460 lung, in the assay on CCRF-CEM leukemia, in the assay with SNB-19 CNS and with K-562 leukemia was more than 100 µM each time. Besides, the TGI with NCI-H522 lung, in the assay on SK-OV-3 ovarian and in the assay with KM12 colon was more than 100 µM each time.
